How the values were obtained:
Assay in all cases: relative viability (nuclei count vs DMSO), 5 days (fraction); higher = more cells survive
NCI-H1734 = tested on: NCI-H1734
In short: (§1)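 One day after seeding in 1536-well plates, lung cancer cell lines were dosed by pin tool. Dosing was either single-drug or a fixed anchor-drug dose plus five library-drug doses (not always all listed) in √10 steps. After 5 days, nuclei were stained in one fix-and-stain step and counted on 4× images, and relative viability is the nuclei count of treated wells over that of vehicle wells, given as the median of duplicate plates.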

NCI-H322M = tested on: NCI-H322M
In short: as §1

NCI-H647 = tested on: NCI-H647
In short: as §1

HOP-62 = tested on: HOP-62
In short: as §1

ChaGo-K-1 = tested on: ChaGo-K-1
In short: as §1

NCI-H441 = tested on: NCI-H441
In short: as §1

NCI-H596 = tested on: NCI-H596
In short: as §1

NCI-H2009 = tested on: NCI-H2009
In short: as §1

NCI-H1563 = tested on: NCI-H1563
In short: as §1

LXF-289 = tested on: LXF-289
In short: as §1

201T = tested on: 201T
In short: as §1

NCI-H3122 = tested on: NCI-H3122
In short: as §1

NCI-H2126 = tested on: NCI-H2126
In short: as §1

ABC-1 = tested on: ABC-1
In short: as §1

H3255 = tested on: H3255
In short: as §1

LK-2 = tested on: LK-2
In short: as §1

NCI-H2170 = tested on: NCI-H2170
In short: as §1

PC-14 = tested on: PC-14
In short: as §1

NCI-H1651 = tested on: NCI-H1651
In short: as §1

NCI-H1755 = tested on: NCI-H1755
In short: as §1

CAL-12T = tested on: CAL-12T
In short: as §1

NCI-H2087 = tested on: NCI-H2087
In short: as §1

EMC-BAC-2 = tested on: EMC-BAC-2
In short: as §1

Work on `CCCCCCCCCCCC1=C(O)C(=O)C=C(O)C1=O` [Embelin] + CS(=O)(=O)N1CCN(Cc2cc3nc(-c4cccc5[nH]ncc45)nc(N4CCOCC4)c3s2)CC1 [Pictilisib] (partner 1 µM) yielded a relative viability (NCI-H1734; first compound 0.08 µM) of 0.492, a relative viability (NCI-H1734; first compound 0.8 µM) of 0.547 and a relative viability (NCI-H1734; first compound 2.53 µM) of 0.557. It also gave a relative viability (NCI-H1734; first compound 8 µM) of 0.431, a relative viability (NCI-H322M; first compound 0.08 µM) of 0.518 and a relative viability (NCI-H322M; first compound 0.8 µM) of 0.612. It also gave a relative viability (NCI-H322M; first compound 2.53 µM) of 0.576, a relative viability (NCI-H322M; first compound 8 µM) of 0.478 and a relative viability (NCI-H647; first compound 0.08 µM) of 0.423. For the same compound, the relative viability (NCI-H647; first compound 0.8 µM) was 0.59, the relative viability (NCI-H647; first compound 2.53 µM) was 0.403 and the relative viability (NCI-H647; first compound 8 µM) was 0.285. It also gave a relative viability (HOP-62; first compound 0.08 µM) of 0.883, a relative viability (HOP-62; first compound 0.8 µM) of 0.964 and a relative viability (HOP-62; first compound 2.53 µM) of 0.433. The relative viability (HOP-62; first compound 8 µM) was 0.503, the relative viability (ChaGo-K-1; first compound 0.08 µM) was 1 and the relative viability (ChaGo-K-1; first compound 0.8 µM) was 1.22. For the same compound, the relative viability (ChaGo-K-1; first compound 2.53 µM) was 0.626, the relative viability (ChaGo-K-1; first compound 8 µM) was 0.428 and the relative viability (NCI-H441; first compound 0.08 µM) was 0.437. It also gave a relative viability (NCI-H441; first compound 0.8 µM) of 0.549, a relative viability (NCI-H441; first compound 2.53 µM) of 0.476 and a relative viability (NCI-H441; first compound 8 µM) of 0.505. The relative viability (NCI-H596; first compound 0.08 µM) was 0.389, the relative viability (NCI-H596; first compound 0.8 µM) was 0.432 and the relative viability (NCI-H596; first compound 2.53 µM) was 0.481. The relative viability (NCI-H596; first compound 8 µM) was 0.357, the relative viability (NCI-H2009; first compound 0.08 µM) was 0.947 and the relative viability (NCI-H2009; first compound 0.8 µM) was 1.09. For the same compound, the relative viability (NCI-H2009; first compound 2.53 µM) was 0.659, the relative viability (NCI-H2009; first compound 8 µM) was 0.679 and the relative viability (NCI-H1563; first compound 0.08 µM) was 0.661. For the same compound, the relative viability (NCI-H1563; first compound 0.8 µM) was 0.786, the relative viability (NCI-H1563; first compound 2.53 µM) was 0.517 and the relative viability (NCI-H1563; first compound 8 µM) was 0.659. For the same compound, the relative viability (LXF-289; first compound 0.08 µM) was 0.855, the relative viability (LXF-289; first compound 0.8 µM) was 0.794 and the relative viability (LXF-289; first compound 2.53 µM) was 0.75. For the same compound, the relative viability (LXF-289; first compound 8 µM) was 0.819, the relative viability (201T; first compound 0.08 µM) was 0.645 and the relative viability (201T; first compound 0.8 µM) was 0.685. For the same compound, the relative viability (201T; first compound 2.53 µM) was 0.649, the relative viability (201T; first compound 8 µM) was 0.613 and the relative viability (NCI-H3122; first compound 0.08 µM) was 0.647. It also gave a relative viability (NCI-H3122; first compound 0.8 µM) of 0.605, a relative viability (NCI-H3122; first compound 2.53 µM) of 0.755 and a relative viability (NCI-H3122; first compound 8 µM) of 0.616. For the same compound, the relative viability (NCI-H2126; first compound 0.08 µM) was 0.482, the relative viability (NCI-H2126; first compound 0.8 µM) was 0.424 and the relative viability (NCI-H2126; first compound 2.53 µM) was 0.523. It also gave a relative viability (NCI-H2126; first compound 8 µM) of 0.467, a relative viability (ABC-1; first compound 0.08 µM) of 0.876 and a relative viability (ABC-1; first compound 0.8 µM) of 0.861. It also gave a relative viability (ABC-1; first compound 2.53 µM) of 0.678, a relative viability (ABC-1; first compound 8 µM) of 0.646 and a relative viability (H3255; first compound 0.08 µM) of 0.574. It also gave a relative viability (H3255; first compound 0.8 µM) of 0.62, a relative viability (H3255; first compound 2.53 µM) of 0.512 and a relative viability (H3255; first compound 8 µM) of 0.525. The relative viability (LK-2; first compound 0.08 µM) was 0.567, the relative viability (LK-2; first compound 0.8 µM) was 0.578 and the relative viability (LK-2; first compound 2.53 µM) was 0.63. The relative viability (LK-2; first compound 8 µM) was 0.562, the relative viability (NCI-H2170; first compound 0.08 µM) was 0.307 and the relative viability (NCI-H2170; first compound 0.8 µM) was 0.325. For the same compound, the relative viability (NCI-H2170; first compound 2.53 µM) was 0.366, the relative viability (NCI-H2170; first compound 8 µM) was 0.286 and the relative viability (PC-14; first compound 0.08 µM) was 0.669. For the same compound, the relative viability (PC-14; first compound 0.8 µM) was 0.804, the relative viability (PC-14; first compound 2.53 µM) was 1.16 and the relative viability (PC-14; first compound 8 µM) was 0.717. The relative viability (NCI-H1651; first compound 0.08 µM) was 0.577, the relative viability (NCI-H1651; first compound 0.8 µM) was 0.647 and the relative viability (NCI-H1651; first compound 2.53 µM) was 0.769. For the same compound, the relative viability (NCI-H1651; first compound 8 µM) was 0.607, the relative viability (NCI-H1755; first compound 0.08 µM) was 0.502 and the relative viability (NCI-H1755; first compound 0.8 µM) was 0.499. The relative viability (NCI-H1755; first compound 2.53 µM) was 0.367, the relative viability (NCI-H1755; first compound 8 µM) was 0.333 and the relative viability (CAL-12T; first compound 0.08 µM) was 0.49. It also gave a relative viability (CAL-12T; first compound 0.8 µM) of 0.587, a relative viability (CAL-12T; first compound 8 µM) of 0.391 and a relative viability (NCI-H2087; first compound 0.08 µM) of 0.885. For the same compound, the relative viability (NCI-H2087; first compound 0.8 µM) was 0.96, the relative viability (NCI-H2087; first compound 2.53 µM) was 1.24 and the relative viability (NCI-H2087; first compound 8 µM) was 0.827. The relative viability (EMC-BAC-2; first compound 0.08 µM) was 0.498, the relative viability (EMC-BAC-2; first compound 0.8 µM) was 0.533 and the relative viability (EMC-BAC-2; first compound 2.53 µM) was 0.442. For the same compound, the relative viability (EMC-BAC-2; first compound 8 µM) was 0.476.

From the supplement of paper PMC10307832
